The numbers were not newly measured in paper PMC5962642, “Dynamic imaging of adaptive stress response pathway activation for prediction of drug induced liver injury” (Archives of Toxicology, 2018), which cites them from elsewhere.

The conditions of data set [1]: ref livertox.nih.gov database; cited from earlier work.
The conditions of data set [2]: ref Chen et al. [2016], cited from earlier work; for Hepa. (hepatotoxicity class): FDA labeling in eight classes of hepatotoxicity; for DILI con. (DILI-concern labeling): FDA DILI labeling.
For data set [3] the following is noted: C-max obtained from FDA or literature; ref per compound (FDA, Dailymed, Xu, O’Brien, Khetani, Regenthal, Gustafsson, Dawson, Ogutu, Patel, Schmidt, Ravic, Keisu, Hu, Wagner); cited from earlier work.

The Cmax is the peak of the concentration-time curve. `CC(O)(CS(=O)(=O)c1ccc(F)cc1)C(=O)Nc1ccc(C#N)c(C(F)(F)F)c1` (stereo not shown) [Bicalutamide]: the “Metab (metabolic potential)” value in data set [1] is “YES”. The “Hepa. (hepatotoxicity class)” value in data set [2] was 8. Moreover, the Cmax in data set [3] was 1.97 µM.

Consider `O=C(CCCN1CCC(O)(c2ccc(Cl)cc2)CC1)c1ccc(F)cc1` [Haloperidol], for which the “Metab (metabolic potential)” value in data set [1] was “YES”. Besides, the “Hepa. (hepatotoxicity class)” value in data set [2] is 5. In addition, the Cmax in data set [3] is 0.005 µM.

For the molecule `CO[C@H]1/C=C/O[C@@]2(C)Oc3c(C)c(O)c4c(O)c(c(/C=N/N5CCN(C)CC5)c(O)c4c3C2=O)NC(=O)/C(C)=C\C=C\[C@H](C)[C@H](O)[C@@H](C)[C@@H](O)[C@@H](C)[C@H](OC(C)=O)[C@@H]1C` [Rifampicin], in data set [1], the “Metab (metabolic potential)” value is “YES”. Also, the “DILI con. (DILI-concern labeling)” value in data set [2] is reported as “Most-DC”. Further, the Cmax in data set [3] is 15 µM.

As for `O=c1n(CCCN2CCN(c3cccc(Cl)c3)CC2)nc2ccccn12` [Trazodone], in data set [1], the “Metab (metabolic potential)” value is on record as “YES”. In data set [2], the “DILI con. (DILI-concern labeling)” value was “Less-DC” and the “Hepa. (hepatotoxicity class)” value is listed as 5. In addition, the highest concentration (Cmax) in data set [3] is 5.06 µM.

`CS(=O)(=O)Nc1ccc([N+](=O)[O-])cc1Oc1ccccc1` [Nimesulide]: the “Metab (metabolic potential)” value in data set [1] is reported as “YES”. For the same molecule, in data set [3], the Cmax was 21.1 µM.

Regarding `Fc1ccc([C@@H]2CCNC[C@H]2COc2ccc3c(c2)OCO3)cc1` [Paroxetine], in data set [1], the “Metab (metabolic potential)” value is “YES”. Besides, in data set [2], the “DILI con. (DILI-concern labeling)” value is reported as “Less-DC” and the “Hepa. (hepatotoxicity class)” value is 8.

`CC/C(=C(\c1ccccc1)c1ccc(OCCN(C)C)cc1)c1ccccc1` [Tamoxifen]: the “Metab (metabolic potential)” value in data set [1] was “YES”.

For the molecule `Nc1nc(O)c2ncn(COC(CO)CO)c2n1` [Ganciclovir], in data set [2], the “Hepa. (hepatotoxicity class)” value is 7. Further, the Cmax in data set [3] was 4.62 µM.

For the molecule `COc1ccccc1Oc1c(NS(=O)(=O)c2ccc(C(C)(C)C)cc2)nc(-c2ncccn2)nc1OCCO` [Bosentan], the “Metab (metabolic potential)” value in data set [1] was “YES”. For the same molecule, in data set [2], the “DILI con. (DILI-concern labeling)” value was “Most-DC” and the “Hepa. (hepatotoxicity class)” value is recorded as 7.

`CN(C)CCCN1c2ccccc2CCc2ccccc21` [Imipramine]: the “Metab (metabolic potential)” value in data set [1] is recorded as “YES”. The peak concentration (Cmax) in data set [3] is 0.29 µM.

For the molecule `C[C@]12C=CC(=O)C=C1CC[C@@H]1[C@@H]2[C@@H](O)C[C@@]2(C)[C@H]1CC[C@]2(O)C(=O)CO` [Prednisolone], in data set [2], the “DILI con. (DILI-concern labeling)” value is given as “Less-DC” and the “Hepa. (hepatotoxicity class)” value is 3. In addition, the Cmax in data set [3] is 0.68 µM.

With `CCc1cccc2c3c([nH]c12)C(CC)(CC(=O)O)OCC3` (stereo not shown) [Etodolac], in data set [2], the “DILI con. (DILI-concern labeling)” value is “Most-DC” and the “Hepa. (hepatotoxicity class)” value was 8. Further, the Cmax in data set [3] was 68.5 µM.

For `CC(C(=O)O)c1cccc(Oc2ccccc2)c1` (stereo not shown) [Fenoprofen], in data set [1], the “Metab (metabolic potential)” value was “YES”. For the same molecule, in data set [2], the “DILI con. (DILI-concern labeling)” value is reported as “Most-DC” and the “Hepa. (hepatotoxicity class)” value is recorded as 8. The Cmax in data set [3] is 58.2 µM.

`COC1=CC(=O)C[C@@H](C)[C@]12Oc1c(Cl)c(OC)cc(OC)c1C2=O` [Griseofulvin]: the “Metab (metabolic potential)” value in data set [1] is “YES”. In addition, in data set [3], the Cmax is 4.54 µM.

For the molecule `CCOC(=O)C(C)(C)Oc1ccc(Cl)cc1` [Clofibrate], in data set [1], the “Metab (metabolic potential)” value was “YES”. In data set [2], the “DILI con. (DILI-concern labeling)” value is reported as “Less-DC” and the “Hepa. (hepatotoxicity class)” value is reported as 3. In addition, the Cmax in data set [3] was 470 µM.

Take `COc1cc(C(=O)NS(=O)(=O)c2ccccc2C)ccc1Cc1cn(C)c2ccc(NC(=O)OC3CCCC3)cc12` [Zafirlukast]: the “Metab (metabolic potential)” value in data set [1] is given as “YES”. In addition, in data set [2], the “DILI con. (DILI-concern labeling)” value is listed as “Most-DC” and the “Hepa. (hepatotoxicity class)” value is 8. For the same molecule, the highest concentration (Cmax) in data set [3] is 1.21 µM.

For the molecule `CN(C)C(=N)N=C(N)N` [Metformin], the “Metab (metabolic potential)” value in data set [1] was “YES”. Further, in data set [2], the “DILI con. (DILI-concern labeling)” value is on record as “Less-DC” and the “Hepa. (hepatotoxicity class)” value was 1.

As for `C=CC[C@@H]1/C=C(\C)C[C@H](C)C[C@H](OC)[C@H]2O[C@@](O)(C(=O)C(=O)N3CCCC[C@H]3C(=O)O[C@H](/C(C)=C/[C@@H]3CC[C@@H](O)[C@H](OC)C3)[C@H](C)[C@@H](O)CC1=O)[C@H](C)C[C@@H]2OC` [Tacrolimus], in data set [1], the “Metab (metabolic potential)” value was “YES”. Moreover, in data set [2], the “DILI con. (DILI-concern labeling)” value was “Less-DC” and the “Hepa. (hepatotoxicity class)” value is recorded as 5.

`CN/C(=N/CCSCc1nc[nH]c1C)NC#N` [Cimetidine]: the “Metab (metabolic potential)” value in data set [1] is on record as “YES”. In addition, in data set [2], the “DILI con. (DILI-concern labeling)” value is listed as “Less-DC” and the “Hepa. (hepatotoxicity class)” value is reported as 2. In addition, in data set [3], the highest concentration (Cmax) was 11.9 µM.

On to `CNC(=C[N+](=O)[O-])NCCSCc1csc(CN(C)C)n1` [Nizatidine], for which the “Metab (metabolic potential)” value in data set [1] is on record as “YES”. For the same molecule, in data set [2], the “DILI con. (DILI-concern labeling)” value is recorded as “Less-DC” and the “Hepa. (hepatotoxicity class)” value is 5. Further, the Cmax in data set [3] is 4 µM.

Regarding `COc1ccc2[nH]c([S+]([O-])Cc3ncc(C)c(OC)c3C)nc2c1` (stereo not shown) [Omeprazole], the “Metab (metabolic potential)” value in data set [1] was “YES”. In addition, in data set [2], the “DILI con. (DILI-concern labeling)” value is “Less-DC” and the “Hepa. (hepatotoxicity class)” value is 4. Moreover, the maximum concentration (Cmax) in data set [3] is 4.7 µM.

With `Cc1cccc(C)c1OCC(C)N` (stereo not shown) [Mexiletine], the “Metab (metabolic potential)” value in data set [1] is reported as “YES”. Moreover, in data set [2], the “Hepa. (hepatotoxicity class)” value is 3. The Cmax in data set [3] is 3.83 µM.

As to `CCCNC(=O)NS(=O)(=O)c1ccc(Cl)cc1` [Chlorpropamide], in data set [2], the “DILI con. (DILI-concern labeling)” value is reported as “Less-DC” and the “Hepa. (hepatotoxicity class)” value is listed as 2. For the same molecule, the Cmax in data set [3] was 130 µM.

On to `CC(C)NCC(O)COc1cccc2ccccc12` (stereo not shown) [Propranolol], for which the “Metab (metabolic potential)” value in data set [1] is “YES”.

With `C[C@H]1O[C@@H](O[C@H]2[C@@H](O)C[C@H](O[C@H]3[C@@H](O)C[C@H](O[C@H]4CC[C@@]5(C)[C@H](CC[C@@H]6[C@@H]5C[C@@H](O)[C@]5(C)[C@@H](C7=CC(=O)OC7)CC[C@]65O)C4)O[C@@H]3C)O[C@@H]2C)C[C@H](O)[C@@H]1O` [Digoxin], the “Hepa. (hepatotoxicity class)” value in data set [2] was 1. Moreover, in data set [3], the Cmax is 0.003 µM.

`CCC1=C(C)CN(C(=O)NCCc2ccc(S(=O)(=O)NC(=O)N[C@H]3CC[C@H](C)CC3)cc2)C1=O` [Glimepiride]: in data set [2], the “DILI con. (DILI-concern labeling)” value is reported as “Less-DC” and the “Hepa. (hepatotoxicity class)” value is 7. Further, the Cmax in data set [3] is 1.12 µM.

With `CN(C)/N=N/c1[nH]cnc1C(N)=O` [Dacarbazine], in data set [2], the “DILI con. (DILI-concern labeling)” value is “Most-DC” and the “Hepa. (hepatotoxicity class)” value was 6. In data set [3], the maximum concentration (Cmax) was 20.6 µM.

As for `O=c1[nH]c(=O)n([C@@H]2O[C@H](CO)[C@@H](O)[C@@H]2F)cc1I` [Fialuridine], in data set [2], the “DILI con. (DILI-concern labeling)” value is recorded as “Most-DC” and the “Hepa. (hepatotoxicity class)” value is given as 8. For the same molecule, the Cmax in data set [3] is 1 µM.

For `CC[C@@H](CO)NCCN[C@@H](CC)CO` [Ethambutol], in data set [2], the “DILI con. (DILI-concern labeling)” value is given as “Most-DC” and the “Hepa. (hepatotoxicity class)” value is recorded as 8. Further, the Cmax in data set [3] is 24.5 µM.

As for `CS(=O)(=O)OCCCCOS(C)(=O)=O` [Busulfan], in data set [2], the “DILI con. (DILI-concern labeling)” value was “Most-DC” and the “Hepa. (hepatotoxicity class)” value is recorded as 8. Also, the highest concentration (Cmax) in data set [3] was 0.277 µM.

On to `CN(C)c1nc(N(C)C)nc(N(C)C)n1` [Altretamine], for which the “DILI con. (DILI-concern labeling)” value in data set [2] is “Amb.-DC”. Moreover, in data set [3], the Cmax was 3.76 µM.

Take `O=c1[nH]cnc2c1ncn2[C@H]1CC[C@@H](CO)O1` [Didanosine]: in data set [2], the “Hepa. (hepatotoxicity class)” value is recorded as 8. Besides, the Cmax in data set [3] is 9.83 µM.

On to `COC(=O)Nc1nc2ccc(C(=O)c3ccccc3)cc2[nH]1` [Mebendazole], for which the “Hepa. (hepatotoxicity class)” value in data set [2] is on record as 3. For the same molecule, the Cmax in data set [3] is 0.13 µM.

For `NC(=O)N1c2ccccc2C=Cc2ccccc21` [Carbamazepine], in data set [2], the “DILI con. (DILI-concern labeling)” value is reported as “Most-DC” and the “Hepa. (hepatotoxicity class)” value is 7. In data set [3], the Cmax was 50.8 µM.

With `Nc1nc2ncc(CNc3ccc(C(=O)N[C@@H](CCC(=O)O)C(=O)O)cc3)nc2c(=O)[nH]1` [Folic acid], in data set [2], the “Hepa. (hepatotoxicity class)” value was 1. Also, in data set [3], the Cmax is 0.043 µM.

With `CN(Cc1cnc2nc(N)nc(N)c2n1)c1ccc(C(=O)N[C@@H](CCC(=O)O)C(=O)O)cc1` [Methotrexate], in data set [2], the “DILI con. (DILI-concern labeling)” value is reported as “Most-DC” and the “Hepa. (hepatotoxicity class)” value was 3. Besides, in data set [3], the peak concentration (Cmax) was 0.77 µM.

With `CC(C)OC(=O)C(C)(C)Oc1ccc(C(=O)c2ccc(Cl)cc2)cc1` [Fenofibrate], the “Hepa. (hepatotoxicity class)” value in data set [2] is 3. In data set [3], the Cmax is 4.1 µM.

Turning to `O=C(c1ccccc1)c1ccc2n1CCC2C(=O)O` (stereo not shown) [Ketorolac], in data set [2], the “DILI con. (DILI-concern labeling)” value is on record as “Less-DC” and the “Hepa. (hepatotoxicity class)” value is 3. In addition, the Cmax in data set [3] is 3.53 µM.

Regarding `CC1COc2c(N3CCN(C)CC3)c(F)cc3c(=O)c(C(=O)O)cn1c23` (stereo not shown) [Ofloxacin], in data set [2], the “Hepa. (hepatotoxicity class)” value is on record as 3. Besides, in data set [3], the Cmax was 9.96 µM.

For `CC1(C)S[C@@H]2[C@H](NC(=O)[C@H](N)c3ccc(O)cc3)C(=O)N2[C@H]1C(=O)O` [Amoxicillin], in data set [2], the “DILI con. (DILI-concern labeling)” value was “Less-DC” and the “Hepa. (hepatotoxicity class)” value is reported as 5. In addition, the Cmax in data set [3] is 22.3 µM.

`CCCc1cc(=O)[nH]c(=S)[nH]1` [Propylthiouracil]: in data set [2], the “Hepa. (hepatotoxicity class)” value is given as 8. Further, in data set [3], the Cmax is 9.1 µM.

Regarding `C#C[C@]1(O)CC[C@H]2[C@@H]3CCC4=Cc5oncc5C[C@]4(C)[C@H]3CC[C@@]21C` [Danazol], the “Hepa. (hepatotoxicity class)” value in data set [2] is on record as 8. Also, in data set [3], the maximum concentration (Cmax) is 0.109 µM.

As for `CNC(=C[N+](=O)[O-])NCCSCc1ccc(CN(C)C)o1` [Ranitidine], in data set [2], the “DILI con. (DILI-concern labeling)” value is reported as “Less-DC” and the “Hepa. (hepatotoxicity class)” value was 5. Also, the maximum concentration (Cmax) in data set [3] is 1.79 µM.

Turning to `CC(=O)Oc1cc(C(C)C)c(OCCN(C)C)cc1C` [Moxisylyte], the “Hepa. (hepatotoxicity class)” value in data set [2] is listed as 8. Besides, the Cmax in data set [3] is 0.16 µM.
